Counter-ions that a name gives are not always drawn.

Assay type in all cases: biochemical
Assay [1] has as its target T1, recombinant human MAO-B (monoamine oxidase-B) (Homo sapiens, UniProt P27338).
T1 construct: purchased Sigma-Aldrich
T1 sequence (P27338 1-520): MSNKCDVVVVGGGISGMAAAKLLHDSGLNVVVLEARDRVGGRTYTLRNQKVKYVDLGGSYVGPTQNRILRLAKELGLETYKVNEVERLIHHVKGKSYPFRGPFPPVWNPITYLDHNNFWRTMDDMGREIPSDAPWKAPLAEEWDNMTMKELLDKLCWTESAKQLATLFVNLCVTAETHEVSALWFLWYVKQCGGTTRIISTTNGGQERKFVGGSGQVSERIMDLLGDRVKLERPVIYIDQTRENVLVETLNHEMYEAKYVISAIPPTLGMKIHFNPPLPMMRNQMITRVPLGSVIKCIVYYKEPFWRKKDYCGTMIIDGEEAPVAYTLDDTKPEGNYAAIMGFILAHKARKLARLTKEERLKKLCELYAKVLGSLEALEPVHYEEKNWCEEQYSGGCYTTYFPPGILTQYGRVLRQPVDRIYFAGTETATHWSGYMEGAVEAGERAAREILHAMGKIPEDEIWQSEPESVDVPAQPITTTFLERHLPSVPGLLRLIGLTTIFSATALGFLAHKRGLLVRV
The assay is described as follows: Amplex Red HRP-coupled amine oxidase assay, recombinant human MAO-B. Particulars: 1 mM benzylamine substrate, read-out: Inhibitory activity (IC50, nM) MAO-B. The method, boiled down: (§1)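 Enzyme preincubated 60 min at 37 °C with compound (six-point curve, 1% DMSO final) in 50 mM sodium phosphate pH 7.4, then Amplex Red 400 μM and HRP 2 U/mL added with substrate: MAO-A 0.5 mM tyramine, MAO-B 1 mM benzylamine, DAO 1 mM putrescine. Resorufin fluorescence read after 1 h; IC50 by four-parameter logistic fit.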

The target of assay [2] is T2, recombinant human MAO-A (monoamine oxidase-A) (Homo sapiens, UniProt P21397).
T2 construct: purchased Sigma-Aldrich
T2 sequence (P21397 1-527): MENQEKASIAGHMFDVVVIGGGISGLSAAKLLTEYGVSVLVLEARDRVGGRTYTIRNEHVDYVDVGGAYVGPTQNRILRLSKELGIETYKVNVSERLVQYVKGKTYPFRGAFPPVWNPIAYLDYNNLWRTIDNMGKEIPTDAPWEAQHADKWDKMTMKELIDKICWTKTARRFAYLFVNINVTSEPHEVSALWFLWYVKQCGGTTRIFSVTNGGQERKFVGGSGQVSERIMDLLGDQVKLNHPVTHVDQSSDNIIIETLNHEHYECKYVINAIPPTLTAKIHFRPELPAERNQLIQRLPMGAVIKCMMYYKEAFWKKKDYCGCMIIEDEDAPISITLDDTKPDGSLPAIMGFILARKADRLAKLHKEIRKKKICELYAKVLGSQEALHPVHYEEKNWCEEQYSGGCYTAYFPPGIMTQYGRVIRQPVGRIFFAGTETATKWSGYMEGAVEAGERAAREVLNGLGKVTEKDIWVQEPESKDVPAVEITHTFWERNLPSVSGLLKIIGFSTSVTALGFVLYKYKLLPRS
The assay can be described thus: Amplex Red HRP-coupled amine oxidase assay, recombinant human MAO-A. Conditions: 0.5 mM tyramine substrate, read-out: Inhibitory activity (IC50, nM) MAO-A. An outline of the steps: as §1

Assay [3] has as its target T3, recombinant human DAO (diamine oxidase) (Homo sapiens, UniProt P19801).
T3 construct: purchased R&D systems
T3 sequence (P19801 20-751): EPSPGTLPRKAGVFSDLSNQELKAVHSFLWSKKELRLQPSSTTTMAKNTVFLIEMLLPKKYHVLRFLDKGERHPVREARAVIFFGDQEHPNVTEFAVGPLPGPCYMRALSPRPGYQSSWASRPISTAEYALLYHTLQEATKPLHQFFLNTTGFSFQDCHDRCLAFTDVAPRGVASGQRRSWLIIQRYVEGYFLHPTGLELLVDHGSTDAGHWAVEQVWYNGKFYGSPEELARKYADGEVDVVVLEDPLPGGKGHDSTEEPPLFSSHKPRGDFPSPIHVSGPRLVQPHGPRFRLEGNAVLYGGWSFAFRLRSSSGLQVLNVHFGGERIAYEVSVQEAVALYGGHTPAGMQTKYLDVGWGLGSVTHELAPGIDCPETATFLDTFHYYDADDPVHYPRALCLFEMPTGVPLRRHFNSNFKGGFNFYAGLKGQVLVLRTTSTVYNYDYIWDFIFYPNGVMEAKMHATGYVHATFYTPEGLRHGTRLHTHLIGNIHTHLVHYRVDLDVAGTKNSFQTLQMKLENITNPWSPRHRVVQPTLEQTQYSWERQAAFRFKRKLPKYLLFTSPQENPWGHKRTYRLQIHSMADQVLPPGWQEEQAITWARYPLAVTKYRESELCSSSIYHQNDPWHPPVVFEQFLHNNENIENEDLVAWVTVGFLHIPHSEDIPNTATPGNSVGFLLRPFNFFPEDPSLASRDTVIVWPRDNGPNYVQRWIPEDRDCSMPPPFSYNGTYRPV
The assay is described as follows: Amplex Red HRP-coupled amine oxidase assay, recombinant human DAO. Conditions: 1 mM putrescine substrate, read-out: Inhibitory activity (IC50, nM) DAO. An outline of the steps: as §1

Assay [4] deals with T4, recombinant human Lysyl Oxidase-Like 2 (LOXL2) (Homo sapiens, UniProt Q9Y4K0).
T4 construct: purchased R&D systems
T4 sequence (Q9Y4K0 26-774): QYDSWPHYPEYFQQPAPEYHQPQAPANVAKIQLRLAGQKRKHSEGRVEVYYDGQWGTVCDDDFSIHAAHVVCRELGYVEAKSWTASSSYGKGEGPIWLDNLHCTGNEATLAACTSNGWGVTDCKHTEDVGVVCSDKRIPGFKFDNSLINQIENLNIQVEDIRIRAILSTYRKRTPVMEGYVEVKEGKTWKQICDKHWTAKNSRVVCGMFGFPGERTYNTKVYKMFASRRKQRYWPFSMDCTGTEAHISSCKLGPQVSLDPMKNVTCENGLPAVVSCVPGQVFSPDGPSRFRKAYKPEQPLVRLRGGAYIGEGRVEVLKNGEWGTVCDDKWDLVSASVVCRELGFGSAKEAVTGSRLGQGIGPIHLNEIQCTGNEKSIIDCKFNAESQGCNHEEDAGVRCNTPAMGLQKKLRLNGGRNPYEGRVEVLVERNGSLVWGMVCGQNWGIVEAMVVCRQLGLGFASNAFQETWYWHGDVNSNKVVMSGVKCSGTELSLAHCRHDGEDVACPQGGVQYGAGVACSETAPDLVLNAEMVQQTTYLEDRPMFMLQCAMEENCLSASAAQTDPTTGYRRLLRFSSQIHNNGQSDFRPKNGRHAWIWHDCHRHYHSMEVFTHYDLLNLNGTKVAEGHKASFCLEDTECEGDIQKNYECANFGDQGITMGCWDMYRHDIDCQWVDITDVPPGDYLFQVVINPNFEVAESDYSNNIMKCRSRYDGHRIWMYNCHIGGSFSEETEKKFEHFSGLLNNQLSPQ
The assay can be described thus: Amplex Red HRP-coupled amine oxidase assay, recombinant human LOXL2. Particulars: 60 min incubation with enzyme at 37° C., putrescine substrate, read-out: Inhibitory activity (IC50, nM) human LOXL2. The method, boiled down: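 Putrescine substrate (30 mM) in 50 mM sodium phosphate pH 7.4, 37 °C; compounds preincubated 60 min with enzyme, 1% DMSO final, six-point curves. H2O2 detected via 400 μM Amplex Red/2 U/mL HRP, fluorescence (ex 530/em 590 nm) after 1 h; IC50 from four-parameter logistic fit of % signal reduction.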

On to `CN(C)S(=O)(=O)c1cccc(-c2cccc3c2nnn3C/C(F)=C/CN)c1` [Example 112, (Z)-3-(1-(4-amino-2-fluorobut-2-en-1-yl)-1H-benzo[d][1,2,3]triazol-4-yl)-N,N-dimethylbenzenesulfonamide hydrochloride], for which the IC50 – broadly, the point on the concentration scale where inhibition reaches its midpoint – in assay [1] was 26500 nM; in assay [2] it was > 100000 nM; in assay [3] it was 32100 nM; in assay [4], 15 nM.
For `CNS(=O)(=O)c1ccc(OC)c(-c2cc(C(=O)OC)cc3c2nnn3C/C(F)=C/CN)c1` [Example 117, methyl (Z)-1-(4-amino-2-fluorobut-2-en-1-yl)-4-(2-methoxy-5-(N-methylsulfamoyl)phenyl)-1H-benzo[d][1,2,3]triazol-6-carboxylate hydrochloride], in that order: 46600 nM, > 100000 nM, 4440 nM and 11.9 nM.
For `CCN(CC)S(=O)(=O)c1ccc(OC)c(-c2cc(C(=O)OC)cc3c2nnn3C/C(F)=C/CN)c1` [Example 119, methyl (Z)-1-(4-amino-2-fluorobut-2-en-1-yl)-4-(5-(N,N-diethylsulfamoyl)-2-methoxyphenyl)-1H-benzo[d][1,2,3]triazol-6-carboxylate hydrochloride], in that order: > 100000 nM, > 100000 nM, 14500 nM and 47.3 nM.
For `CC(=O)c1ccc(F)c(-c2cc(C(F)(F)F)cc3c2ncn3C/C(F)=C/CN)c1` [Example 169, (Z)-1-(3-(1-(4-amino-2-fluorobut-2-en-1-yl)-6-(trifluoromethyl)-1H-benzo[d]imidazol-4-yl)-4-fluorophenyl)ethan-1-one hydrochloride], in that order: > 100000 nM, 26900 nM, 5400 nM and 273 nM.
With `NC/C=C(\F)Cn1cnc2c(-c3cccnc3)cc(C(F)(F)F)cc21` [Example 172, (Z)-3-fluoro-4-(4-(pyridin-3-yl)-6-(trifluoromethyl)-1H-benzo[d]imidazol-1-yl)but-2-en-1-amine hydrochloride], the IC50 in assay [1] was found to be 51600 nM; in assay [2], 17800 nM; in assay [3], 3520 nM; in assay [4] it was 311 nM.
For `NC/C=C(\F)Cn1cnc2c(-c3cncc(F)c3)cc(C(F)(F)F)cc21` [Example 173, (Z)-3-fluoro-4-(4-(5-fluoropyridin-3-yl)-6-(trifluoromethyl)-1H-benzo[d]imidazol-1-yl)but-2-en-1-amine hydrochloride], in that order: > 100000 nM, 15400 nM, 3730 nM and 269 nM.
For `NC/C=C(\F)Cn1cnc2c(-c3cncc(Cl)c3)cc(C(F)(F)F)cc21` [Example 174, (Z)-4-(4-(5-chloropyridin-3-yl)-6-(trifluoromethyl)-1H-benzo[d]imidazol-1-yl)-3-fluoro-but-2-en-1-amine hydrochloride], the IC50 is > 100000 nM in assay [1], 81200 nM in assay [2], 2210 nM in assay [3] and 304 nM in assay [4].
For `NC/C=C(\F)Cn1cnc2c(-c3cncnc3)cc(C(F)(F)F)cc21` [Example 175, (Z)-3-fluoro-4-(4-(pyrimidin-5-yl)-6-(trifluoromethyl)-1H-benzo[d]imidazol-1-yl)but-2-en-1-amine hydrochloride] the same measures were > 100000 nM, > 100000 nM, 2580 nM and 259 nM.
For `Cn1nccc1-c1cc(C(F)(F)F)cc2c1ncn2C/C(F)=C/CN` [Example 176, (Z)-3-fluoro-4-(4-(1-methyl-1H-pyrazol-5-yl)-6-(trifluoromethyl)-1H-benzo[d]imidazol-1-yl) but-2-en-1-yl-amine hydrochloride], in that order: > 100000 nM, > 100000 nM, 26700 nM and 92.4 nM.
On to `CNS(=O)(=O)c1ccc(OC)c(-c2cc(C#N)cc3c2ncn3C/C(F)=C/CN)c1` [Example 183, (Z)-3-(1-(4-amino-2-fluorobut-2-en-1-yl)-6-cyano-1H-benzo[d]imidazol-4-yl)-4-methoxy-N-methylbenzenesulfonamide hydrochloride], for which the IC50 was > 100000 nM in assay [1], > 100000 nM in assay [2], 1820 nM in assay [3] and 35.1 nM in assay [4].
`Cc1cc(-c2cc(C#N)cc3c2ncn3C/C(F)=C/CN)n(C)n1` [Example 194, (Z)-1-(4-amino-2-fluorobut-2-en-1-yl)-4-(1,3-dimethyl-1H-pyrazol-5-yl)-1H-benzo[d]imidazol-6-carbonitrile hydrochloride]: the IC50 is > 100000 nM in assay [1], 36800 nM in assay [2], 7590 nM in assay [3] and 105 nM in assay [4].
`N#Cc1cc(-c2ccn(CCO)n2)c2ncn(C/C(F)=C/CN)c2c1` [Example 195, (Z)—1-(4-amino-2-fluorobut-2-en-1-yl)-4-(1-(2-hydroxyethyl)-1H-pyrazol-3-yl)-1H-benzo[d]imidazol-6-carbonitrile hydrochloride]: the IC50 in assay [1] was > 100000 nM; in assay [2], > 100000 nM; in assay [3] it was 5560 nM; in assay [4] it was 159 nM.

The values above are taken from patent publication US12686665B2, “Bicyclic fused ring derivative or salt thereof and pharmaceutical composition comprising same” (YUHAN CORPORATION, priority 2021, dated 2026).
